Data from PubChem BioAssay (NCI).
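Cells were grown in 96-well plates and exposed to each compound for 48 hours at five concentrations; endpoints were interpolated linearly between bracketing concentrations, or set to the highest concentration if not reached. Abbreviation: GI50, concentration required for 50% inhibition of growth. TGI denotes the concentration required for complete inhibition of growth.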

What was measured:
Test in all cases: growth of human tumour cells (NCI), 48 h
[1] = tested on: TK-10 renal
[2] = tested on: SW-620 colon
[3] = tested on: KM12 colon
[4] = tested on: A498 renal
[5] = tested on: SR leukemia
[6] = tested on: NCI-H522 lung
[7] = tested on: SK-MEL-28 melanoma
[8] = tested on: MDA-MB-435
[9] = tested on: PC-3 prostate
[10] = tested on: DU-145 prostate
[11] = tested on: SNB-75 CNS
[12] = tested on: LOX IMVI melanoma
[13] = tested on: MDA-MB-231 breast
[14] = tested on: OVCAR-8 ovarian
[15] = tested on: OVCAR-3 ovarian
[16] = tested on: HCC-2998 colon
[17] = tested on: SF-295 CNS
[18] = tested on: RPMI-8226 leukemia
[19] = tested on: T-47D breast
[20] = tested on: MDA-MB-468 breast
[21] = tested on: CAKI-1 renal
[22] = tested on: HL-60(TB) leukemia
[23] = tested on: SK-OV-3 ovarian
[24] = tested on: CCRF-CEM leukemia
[25] = tested on: SF-268 CNS
[26] = tested on: ACHN renal
[27] = tested on: MCF7 breast
[28] = tested on: OVCAR-5 ovarian
[29] = tested on: NCI-H460 lung
[30] = tested on: HOP-92 NSCLC

SMILES: COc1sc(/C=N/NC(=O)c2[nH]c3ccc(Br)cc3c2-c2ccccc2)cc1Cl
- TGI [1]: > 100 µM
- GI50 [2]: 2.88 µM
- TGI [2]: > 100 µM
- GI50 [3]: 2.79 µM
- TGI [3]: > 100 µM
- GI50 [4]: 11.1 µM
- TGI [4]: 53.7 µM
- GI50 [5]: 1 µM
- TGI [5]: > 100 µM
- GI50 [6]: 0.2 µM
- TGI [6]: 0.566 µM
- GI50 [7]: 3.26 µM
- TGI [7]: > 100 µM
- GI50 [8]: 0.346 µM
- TGI [8]: 2.6 µM
- GI50 [9]: 3.06 µM
- TGI [9]: > 100 µM
- GI50 [10]: 3.23 µM
- TGI [10]: 32.5 µM
- GI50 [11]: 0.74 µM
- TGI [11]: 26.9 µM
- GI50 [12]: 1.61 µM
- TGI [12]: 40.7 µM
- GI50 [13]: 3.23 µM
- TGI [13]: 43.1 µM
- GI50 [14]: 0.69 µM
- TGI [14]: 11.5 µM
- GI50 [15]: 0.607 µM
- TGI [15]: 11.1 µM
- GI50 [16]: 3.74 µM
- TGI [16]: > 100 µM
- GI50 [17]: 1.2 µM
- TGI [17]: 27.2 µM
- GI50 [18]: 1.96 µM
- TGI [18]: > 100 µM
- GI50 [19]: 6.62 µM
- TGI [19]: > 100 µM
- GI50 [20]: 0.895 µM
- TGI [20]: 5.54 µM
- GI50 [21]: 0.798 µM
- TGI [21]: 94.6 µM
- GI50 [22]: 1.52 µM
- TGI [22]: 5.23 µM
- GI50 [23]: 0.741 µM
- TGI [23]: 22.8 µM
- GI50 [24]: 3.09 µM
- TGI [24]: > 100 µM
- GI50 [25]: 2.67 µM
- TGI [25]: > 100 µM
- GI50 [26]: 2.38 µM
- TGI [26]: > 100 µM
- GI50 [27]: 0.447 µM
- TGI [27]: > 100 µM
- GI50 [28]: 3.28 µM
- TGI [28]: 72.9 µM
- GI50 [29]: 2.79 µM
- TGI [29]: 10.7 µM
- GI50 [30]: 9.72 µM
- TGI [30]: > 100 µM
